# Reference: patent publication US11993603B2, “Preparation for 6-amino-1H-pyrazolo[3,4-d]pyrimidine-based JAK kinase inhibitor and application thereof” (INSTITUTE OF MATERIA MEDICA, CHINESE ACADEMY OF MEDICAL …, priority 2018, dated 2024)
# How the values were obtained:
# Type in all cases: biochemical
# [1] = biological target: JAK-3 (Homo sapiens (Human), UniProt P52333); test: Inhibition test on JAK-3 kinase (FRET peptide substrate assay); settings: kinase 1 nM, 1 h at room temperature; read-out: IC50 (nM) JAK-3
# JAK-3, sequence (P52333 whole entry): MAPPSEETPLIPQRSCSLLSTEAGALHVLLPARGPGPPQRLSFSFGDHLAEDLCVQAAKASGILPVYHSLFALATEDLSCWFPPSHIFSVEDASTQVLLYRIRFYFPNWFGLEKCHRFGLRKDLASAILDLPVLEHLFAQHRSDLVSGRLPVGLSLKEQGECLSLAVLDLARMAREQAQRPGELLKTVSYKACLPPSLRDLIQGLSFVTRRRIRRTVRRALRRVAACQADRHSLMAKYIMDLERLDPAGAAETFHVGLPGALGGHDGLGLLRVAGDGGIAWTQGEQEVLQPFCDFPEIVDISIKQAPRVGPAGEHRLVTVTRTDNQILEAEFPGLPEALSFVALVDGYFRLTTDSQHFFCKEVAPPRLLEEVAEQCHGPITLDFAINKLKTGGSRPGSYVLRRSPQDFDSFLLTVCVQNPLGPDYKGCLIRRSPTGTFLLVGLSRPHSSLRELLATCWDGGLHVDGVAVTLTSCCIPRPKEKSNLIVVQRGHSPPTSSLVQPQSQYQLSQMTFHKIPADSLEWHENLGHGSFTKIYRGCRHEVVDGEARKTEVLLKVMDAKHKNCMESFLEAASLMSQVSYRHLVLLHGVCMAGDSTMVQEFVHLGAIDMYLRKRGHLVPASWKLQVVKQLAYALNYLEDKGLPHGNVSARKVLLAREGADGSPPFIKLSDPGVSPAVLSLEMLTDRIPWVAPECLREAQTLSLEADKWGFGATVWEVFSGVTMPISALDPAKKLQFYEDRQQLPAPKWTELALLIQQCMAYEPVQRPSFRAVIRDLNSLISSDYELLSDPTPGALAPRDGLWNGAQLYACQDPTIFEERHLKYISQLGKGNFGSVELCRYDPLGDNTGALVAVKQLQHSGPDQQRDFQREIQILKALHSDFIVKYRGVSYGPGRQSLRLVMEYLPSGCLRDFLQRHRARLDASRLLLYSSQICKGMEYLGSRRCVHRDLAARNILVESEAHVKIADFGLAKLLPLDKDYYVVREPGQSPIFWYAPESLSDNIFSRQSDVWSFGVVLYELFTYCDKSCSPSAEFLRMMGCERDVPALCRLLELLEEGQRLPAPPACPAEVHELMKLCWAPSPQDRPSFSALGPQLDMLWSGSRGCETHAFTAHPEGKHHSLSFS
# Text: (§1) Experiment Example (Inhibition Tests on JAK-1, JAK-2 and JAK-3 Kinases)
# (§2) To evaluate the inhibitory activity of the compound on JAK-1, JAK-2 and JAK-3 kinases
# (§3) A proteolytic enzyme is coupled to exert different proteolysis on a specific phosphorylated and nonphosphorylated peptide substrate based on fluorescence resonance energy transfer (FRET). Both ends of the peptide substrate were respectively labeled FRET energy donor coumarin and energy receptor fluorescein, and at this time, the donor was stimulated to produce energy transfer when the donor is close to a receptor.
# (§4) In Kinase Reaction, JAK-1, JAK-2 or JAK-3 may transfer γ-phosphoric acid in ATP onto a single tyrosine residue of a peptide substrate; and there were JAK-1, JAK-2 or JAK-3 inhibitors in the system, γ-phosphoric acid groups on ATP would be not transferred onto the peptide substrate, thus resulting in the failure of phosphorylation. An evaluation experiment was designed based on the principle, a peptide substrate was designed with kinase phosphorylation sites, namely, protein restriction enzyme cutting sites; and both ends thereof were respectively connected with 2 fluorophores as a donor and a receptor respectively; if the kinase kept activity in the system, a γ-phosphonic acid group was transferred onto restriction enzyme cutting sites of the substrate, so that the γ-phosphonic acid group would not be cut and separated into two segments by a protease; moreover, under the stimulation of a laser having a specific wavelength, energy from a segment of fluorescence would be transferred onto another end of fluorophores, thus emitting energy. Otherwise, after kinase activity was inhibited, phosphoric acid groups would be not transferred, and restriction enzyme cutting sites in the substrate would be cut by a […] in the system to separate the substrate into two segments, thereby no energy transfer of fluorescence occurred. Based on this, the activity of the kinase was evaluated.
# (§5) In this experiment, a 10 μl kinase reaction system was selected, firstly, 2.5 μl kinase (concentration: 1 nM), 2.5 μl peptide substrate (concentration: 2 μM), 2.5 μl ATP (concentration: […]) and 2.5 μl compound were added to each system for reaction for 1 h at room temperature, and then a 5 μl test solution was added for reaction for 1 h at room temperature, then a 5 μl stop buffer was added. A microplate reader (Synergy H1, BioTek, USA) was used to measure fluorescence intensity (emission intensity of coumarin at 445 nm and emission intensity of fluorescein at 520 nm were detected under the stimulation of 400 nm). The inhibitory activity of each compound was calculated, where it was believed that fluorescence intensity of a well not containing the kinase was 100% inhibited.
# [2] = biological target: JAK-2 (Homo sapiens (Human), UniProt O60674); test: Inhibition test on JAK-2 kinase (FRET peptide substrate assay); settings: kinase 1 nM, 1 h at room temperature
# JAK-2, sequence (O60674 whole entry): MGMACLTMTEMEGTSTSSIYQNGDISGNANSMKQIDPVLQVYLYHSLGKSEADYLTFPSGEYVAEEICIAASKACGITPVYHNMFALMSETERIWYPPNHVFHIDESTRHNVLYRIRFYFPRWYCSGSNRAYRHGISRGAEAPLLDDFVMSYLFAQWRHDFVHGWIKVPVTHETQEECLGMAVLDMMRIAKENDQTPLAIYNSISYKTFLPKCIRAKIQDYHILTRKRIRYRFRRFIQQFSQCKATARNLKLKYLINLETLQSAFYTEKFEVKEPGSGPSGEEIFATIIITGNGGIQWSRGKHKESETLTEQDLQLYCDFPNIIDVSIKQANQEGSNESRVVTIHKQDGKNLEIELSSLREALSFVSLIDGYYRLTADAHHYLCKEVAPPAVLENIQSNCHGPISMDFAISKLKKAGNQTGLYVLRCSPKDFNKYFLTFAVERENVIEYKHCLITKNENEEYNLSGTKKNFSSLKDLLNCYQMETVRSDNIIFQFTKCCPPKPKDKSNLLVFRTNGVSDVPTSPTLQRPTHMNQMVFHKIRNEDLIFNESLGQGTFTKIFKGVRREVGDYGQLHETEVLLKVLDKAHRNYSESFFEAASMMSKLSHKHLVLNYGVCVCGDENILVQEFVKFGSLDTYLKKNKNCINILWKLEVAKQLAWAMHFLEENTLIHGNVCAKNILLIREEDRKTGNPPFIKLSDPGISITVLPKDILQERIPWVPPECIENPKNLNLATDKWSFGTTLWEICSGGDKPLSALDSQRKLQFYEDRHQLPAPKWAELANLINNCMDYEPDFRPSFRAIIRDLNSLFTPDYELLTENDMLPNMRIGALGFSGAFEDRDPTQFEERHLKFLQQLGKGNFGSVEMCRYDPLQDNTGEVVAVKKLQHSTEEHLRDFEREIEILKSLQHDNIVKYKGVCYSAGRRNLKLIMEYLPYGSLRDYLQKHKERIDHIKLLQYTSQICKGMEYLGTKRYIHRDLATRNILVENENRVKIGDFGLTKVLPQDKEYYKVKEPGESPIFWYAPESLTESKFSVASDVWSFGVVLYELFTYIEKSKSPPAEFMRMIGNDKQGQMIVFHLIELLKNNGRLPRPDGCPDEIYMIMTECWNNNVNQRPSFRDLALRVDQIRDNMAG
# Text: as §1, §2, §3, §4, §5
# [3] = biological target: JAK-1 (Homo sapiens (Human), UniProt P23458); test: Inhibition test on JAK-1 kinase (FRET peptide substrate assay); settings: kinase 1 nM, 1 h at room temperature
# JAK-1, sequence (P23458 whole entry): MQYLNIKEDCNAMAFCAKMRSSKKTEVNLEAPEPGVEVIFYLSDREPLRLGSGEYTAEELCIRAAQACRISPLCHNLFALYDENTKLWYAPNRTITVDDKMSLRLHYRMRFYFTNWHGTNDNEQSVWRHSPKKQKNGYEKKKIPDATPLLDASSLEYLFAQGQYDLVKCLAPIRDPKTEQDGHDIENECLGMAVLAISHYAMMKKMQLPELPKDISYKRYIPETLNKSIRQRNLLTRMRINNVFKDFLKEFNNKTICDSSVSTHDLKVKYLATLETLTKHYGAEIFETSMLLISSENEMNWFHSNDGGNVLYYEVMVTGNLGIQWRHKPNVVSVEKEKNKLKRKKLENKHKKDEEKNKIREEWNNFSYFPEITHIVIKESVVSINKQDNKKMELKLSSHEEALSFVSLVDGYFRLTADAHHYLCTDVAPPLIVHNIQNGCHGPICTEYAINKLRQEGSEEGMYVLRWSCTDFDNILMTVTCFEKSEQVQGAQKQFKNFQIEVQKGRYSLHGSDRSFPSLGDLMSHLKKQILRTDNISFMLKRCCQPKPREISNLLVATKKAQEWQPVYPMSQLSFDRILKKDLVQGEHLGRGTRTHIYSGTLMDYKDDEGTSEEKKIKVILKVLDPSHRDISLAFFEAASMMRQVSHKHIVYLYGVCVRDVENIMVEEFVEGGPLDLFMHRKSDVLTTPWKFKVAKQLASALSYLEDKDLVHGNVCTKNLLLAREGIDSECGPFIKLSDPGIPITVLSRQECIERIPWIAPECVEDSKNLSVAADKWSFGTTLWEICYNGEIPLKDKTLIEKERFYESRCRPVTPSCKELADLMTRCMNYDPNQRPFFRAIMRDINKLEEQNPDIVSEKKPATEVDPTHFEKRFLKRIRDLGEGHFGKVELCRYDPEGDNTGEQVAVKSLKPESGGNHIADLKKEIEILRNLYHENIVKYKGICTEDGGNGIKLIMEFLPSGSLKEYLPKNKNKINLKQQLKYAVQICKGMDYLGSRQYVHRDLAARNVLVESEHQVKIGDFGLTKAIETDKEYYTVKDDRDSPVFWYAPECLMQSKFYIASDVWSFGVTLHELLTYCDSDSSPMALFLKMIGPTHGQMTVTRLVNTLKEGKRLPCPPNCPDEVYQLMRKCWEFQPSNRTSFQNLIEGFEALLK
# Text: as §1, §2, §3, §4, §5
smiles,measurement,setting,value
"C=CC(=O)Nc1cccc(Cn2ncc3cnc(Nc4ccccc4)nc32)c1 [Example 4, N-(3-((6-aniline-1H-pyrazolo[3,4-d]pyrimidin-1-yl)methyl)phenyl)acrylamide]",IC50,[1],1.1 nM
same,IC50,[2],1120 nM
same,IC50,[3],901 nM
"C=CC(=O)Nc1cccc(Cn2ncc3cnc(Nc4ccc(N5CCOCC5)cc4)nc32)c1 [Example 6, N-(3-((6-((4-morpholinylphenyl)amino)-1H-pyrazolo[3,4-d]pyrimidin-1-yl)methyl)phenyl)acrylamide]",IC50,[1],0.1 nM
same,IC50,[2],3100 nM
same,IC50,[3],1000 nM
